Reference: BindingDB's records for PubMed 11714892 (Recordati, 2001)

Columns and labels:
[1] = biological target: T1, Alpha-1A adrenergic receptor (Homo sapiens, UniProt P35348)
T1 sequence (P35348 whole entry): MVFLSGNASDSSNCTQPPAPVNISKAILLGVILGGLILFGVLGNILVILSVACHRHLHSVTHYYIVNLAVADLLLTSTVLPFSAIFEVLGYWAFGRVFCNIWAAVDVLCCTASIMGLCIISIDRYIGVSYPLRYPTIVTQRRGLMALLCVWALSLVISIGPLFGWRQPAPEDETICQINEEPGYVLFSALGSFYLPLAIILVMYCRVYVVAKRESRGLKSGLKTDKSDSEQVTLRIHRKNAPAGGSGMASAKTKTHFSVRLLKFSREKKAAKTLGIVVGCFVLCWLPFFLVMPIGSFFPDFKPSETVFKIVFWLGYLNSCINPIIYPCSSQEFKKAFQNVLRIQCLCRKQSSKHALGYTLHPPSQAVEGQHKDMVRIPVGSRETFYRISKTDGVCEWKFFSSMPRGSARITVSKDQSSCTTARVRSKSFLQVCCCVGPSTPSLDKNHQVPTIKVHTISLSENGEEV

[2] = biological target: T2, Alpha-1B adrenergic receptor (Homo sapiens, UniProt P35368)
T2 sequence (P35368 whole entry): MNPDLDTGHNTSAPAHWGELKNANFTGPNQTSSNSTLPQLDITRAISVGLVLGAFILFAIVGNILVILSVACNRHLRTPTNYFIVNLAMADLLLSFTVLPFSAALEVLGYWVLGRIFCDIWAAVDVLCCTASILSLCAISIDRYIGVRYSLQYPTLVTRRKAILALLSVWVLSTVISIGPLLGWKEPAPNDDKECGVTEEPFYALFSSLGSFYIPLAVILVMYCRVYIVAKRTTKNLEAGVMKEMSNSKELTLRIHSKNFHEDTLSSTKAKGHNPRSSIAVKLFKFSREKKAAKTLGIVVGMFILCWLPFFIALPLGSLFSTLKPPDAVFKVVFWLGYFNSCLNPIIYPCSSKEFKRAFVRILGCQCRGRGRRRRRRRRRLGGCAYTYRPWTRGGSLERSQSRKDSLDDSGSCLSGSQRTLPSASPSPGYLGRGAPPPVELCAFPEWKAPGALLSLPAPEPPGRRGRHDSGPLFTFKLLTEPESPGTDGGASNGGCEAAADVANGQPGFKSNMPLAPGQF

[3] = biological target: T3, Alpha-1D adrenergic receptor (Homo sapiens, UniProt P25100)
T3 sequence (P25100 whole entry): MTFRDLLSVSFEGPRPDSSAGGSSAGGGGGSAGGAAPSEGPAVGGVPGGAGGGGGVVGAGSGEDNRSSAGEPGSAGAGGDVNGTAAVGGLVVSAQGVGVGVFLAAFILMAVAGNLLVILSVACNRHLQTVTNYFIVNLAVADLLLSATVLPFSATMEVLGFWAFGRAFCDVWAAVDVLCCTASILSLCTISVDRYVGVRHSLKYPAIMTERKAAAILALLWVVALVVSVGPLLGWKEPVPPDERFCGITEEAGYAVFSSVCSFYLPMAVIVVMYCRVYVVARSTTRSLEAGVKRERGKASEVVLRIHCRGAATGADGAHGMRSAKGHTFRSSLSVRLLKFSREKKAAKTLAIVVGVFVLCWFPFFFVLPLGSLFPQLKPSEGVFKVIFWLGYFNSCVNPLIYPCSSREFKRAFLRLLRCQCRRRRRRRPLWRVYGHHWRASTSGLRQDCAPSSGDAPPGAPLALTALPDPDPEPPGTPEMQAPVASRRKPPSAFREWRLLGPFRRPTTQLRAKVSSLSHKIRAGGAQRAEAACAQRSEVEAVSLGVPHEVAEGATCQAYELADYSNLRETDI

[4] = biological target: T4, 5-hydroxytryptamine receptor 1A (Rattus norvegicus, UniProt P19327)
T4 sequence (P19327 whole entry): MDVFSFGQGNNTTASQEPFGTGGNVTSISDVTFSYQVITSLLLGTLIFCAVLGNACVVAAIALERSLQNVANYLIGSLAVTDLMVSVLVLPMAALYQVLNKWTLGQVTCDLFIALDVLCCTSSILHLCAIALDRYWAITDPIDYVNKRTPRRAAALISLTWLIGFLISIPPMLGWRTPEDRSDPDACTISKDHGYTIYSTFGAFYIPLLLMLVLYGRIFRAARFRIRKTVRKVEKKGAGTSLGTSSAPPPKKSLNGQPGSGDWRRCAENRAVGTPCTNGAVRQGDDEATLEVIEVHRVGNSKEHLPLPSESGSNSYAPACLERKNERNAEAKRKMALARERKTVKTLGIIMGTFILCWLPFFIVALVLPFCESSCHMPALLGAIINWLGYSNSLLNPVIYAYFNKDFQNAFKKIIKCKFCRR

Compound COc1ccccc1N1CCN(CCN(C(=O)C2CCCCC2)c2ccccc2[N+](=O)[O-])CC1 [N-[2-[4-(2-methoxyphenyl)-1-piperazinyl]-ethyl]-N-(2-nitrophenyl)cyclohexanecarboxamide] has a Ki [1] of 81 nM, a Ki [2] of 105 nM and a Ki [3] of 5.7 nM. It also gave a Ki [4] of 0.7 nM.
